Patent publication US20110172147A1, “NEUROPEPTIDE-2 RECEPTOR (Y-2R) AGONISTS” (priority 2009, published 2011)
*1 amine or outer side, *2 acyl side, *3 side chain or, on linkers, in order; H or OH if unused. Where a SMILES comes first, the peptide text is derived from it. [ ]: non-standard residue; d: D form. The star is where a group is joined. MeO(CH2CH2O)23CH2CH2CO = COCCOCCOCCOCCOCCOCCOCCOCCOCCOCCOCCOCCOCCOCCOCCOCCOCCOCCOCCOCCOCCOCCOCCOCCC(=O)*; CH3O(CH2CH2O)11CH2CH2CO = COCCOCCOCCOCCOCCOCCOCCOCCOCCOCCOCCOCCC(=O)*; X1 = O=C(Cn1cnc2ccc(N3CCN([*:1])CC3)cc2c1=O)[*:2]; Arachidoyl = CCCCCCCCCCCCCCCCCCCC(=O)*

Columns and labels:
Format in all cases: cell-based
Y4R = Y4R (Homo sapiens, UniProt P50391); assay: CaFlux Assay (FLIPR), Y4R
hNPY2R [1] = biological target: T1, hNPY2R (Homo sapiens, UniProt P49146); assay: CaFlux Assay (FLIPR), Y2R; parameters: expressed in transfected cells; host or cells: HEK-293 stably transfected with G protein chimera Gαqi9
T1 sequence (P49146 1-381): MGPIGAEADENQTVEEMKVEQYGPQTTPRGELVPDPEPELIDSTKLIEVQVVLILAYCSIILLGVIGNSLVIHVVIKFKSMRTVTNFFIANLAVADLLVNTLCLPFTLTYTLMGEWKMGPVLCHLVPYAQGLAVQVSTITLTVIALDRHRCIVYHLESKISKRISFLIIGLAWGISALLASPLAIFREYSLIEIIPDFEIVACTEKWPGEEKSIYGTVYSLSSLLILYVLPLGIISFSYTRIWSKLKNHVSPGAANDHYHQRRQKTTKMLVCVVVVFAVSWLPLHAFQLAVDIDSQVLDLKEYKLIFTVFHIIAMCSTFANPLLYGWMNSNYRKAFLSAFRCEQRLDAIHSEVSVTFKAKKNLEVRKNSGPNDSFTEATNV
How it was run: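 HEK-293 cells stably expressing Gαqi9 and the human receptor, dye-loaded 1 h at 37° C, then compound added on FLIPR. Fluorescence read every 1.5 s for 100 s; peak increase over pre-stimulation baseline, expressed as % of positive-control maximal response.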

Y5R = biological target: T2, Y5R (Homo sapiens, UniProt Q15761); assay: CaFlux Assay (FLIPR), Y5R
T2 sequence (Q15761 1-445): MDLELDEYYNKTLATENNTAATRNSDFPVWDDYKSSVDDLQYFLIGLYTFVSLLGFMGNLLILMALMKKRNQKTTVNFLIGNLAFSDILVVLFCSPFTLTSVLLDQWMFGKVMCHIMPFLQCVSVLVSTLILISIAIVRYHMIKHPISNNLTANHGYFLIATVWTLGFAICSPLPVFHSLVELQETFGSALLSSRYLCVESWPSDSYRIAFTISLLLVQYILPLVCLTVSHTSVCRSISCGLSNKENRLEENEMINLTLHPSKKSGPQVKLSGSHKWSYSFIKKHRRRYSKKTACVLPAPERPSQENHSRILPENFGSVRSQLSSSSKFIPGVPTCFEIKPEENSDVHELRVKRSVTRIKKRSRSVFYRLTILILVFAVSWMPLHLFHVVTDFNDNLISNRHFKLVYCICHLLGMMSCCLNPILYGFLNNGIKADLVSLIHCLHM

Y1R = biological target: T3, Y1R (Homo sapiens, UniProt P25929); assay: CaFlux Assay (FLIPR), Y1R
T3 sequence (P25929 1-384): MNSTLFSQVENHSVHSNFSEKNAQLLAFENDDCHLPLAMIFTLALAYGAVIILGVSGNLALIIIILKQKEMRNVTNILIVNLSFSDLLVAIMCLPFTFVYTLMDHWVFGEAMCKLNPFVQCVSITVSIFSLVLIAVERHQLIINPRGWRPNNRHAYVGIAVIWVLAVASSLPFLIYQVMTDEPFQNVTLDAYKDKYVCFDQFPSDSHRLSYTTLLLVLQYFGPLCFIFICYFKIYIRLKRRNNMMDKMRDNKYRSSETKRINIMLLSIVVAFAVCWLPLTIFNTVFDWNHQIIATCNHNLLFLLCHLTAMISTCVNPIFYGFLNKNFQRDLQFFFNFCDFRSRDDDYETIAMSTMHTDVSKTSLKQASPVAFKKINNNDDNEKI

hNPY2R [2] = biological target: T1, hNPY2R; assay: cAMP Agonist Assay, HEK293/hNPY2R; parameters: expressed in transfected cells; host or cells: HEK293/hNPY2R (G418 selection)
How it was run: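 HEK293/hNPY2R cells (10,000/well, overnight) stimulated 30 min at room temperature with compound plus 5 μM forskolin and 0.5 mM IBMX (1.1% DMSO final). Lysate cAMP measured by competitive chemiluminescent ELISA (AP conjugate, CSPD substrate); quadruplicates.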

Chain of Y4R (P50391 whole entry): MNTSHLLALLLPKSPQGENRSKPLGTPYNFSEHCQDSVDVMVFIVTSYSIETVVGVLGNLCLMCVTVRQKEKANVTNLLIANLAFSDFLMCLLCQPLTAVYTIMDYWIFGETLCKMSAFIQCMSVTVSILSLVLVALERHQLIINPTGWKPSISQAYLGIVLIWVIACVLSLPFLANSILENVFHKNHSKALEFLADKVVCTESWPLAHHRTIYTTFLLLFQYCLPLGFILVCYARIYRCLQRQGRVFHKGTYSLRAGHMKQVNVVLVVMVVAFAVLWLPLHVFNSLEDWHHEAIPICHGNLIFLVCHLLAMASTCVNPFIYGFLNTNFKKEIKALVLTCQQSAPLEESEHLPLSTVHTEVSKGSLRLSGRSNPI

SMILES	EC50 (Y4R)	EC50 (hNPY2R [1])	EC50 (Y5R)	EC50 (Y1R)	EC50 (hNPY2R [2])
CCCCCCCCCCCCCCCCCCCC(=O)N[C@@H](CCC(=O)O)C(=O)N[C@@H](CCC(=O)O)C(=O)N[C@H](C(=O)N[C@@H](CCCCNC(=O)CCOCCOCCOCCOCCOCCOCCOCCOCCOCCOCCOCCOCCOCCOCCOCCOCCOCCOCCOCCOCCOCCOCCOCCOC)C(=O)N1CCN(c2ccc3ncn(CC(=O)N[C@@H](CCCNC(=N)N)C(=O)N[C@@H](Cc4c[nH]cn4)C(=O)N[C@@H](Cc4ccc(O)cc4)C(=O)N[C@@H](CC(C)C)C(=O)N[C@@H](CC(N)=O)C(=O)N[C@@H](Cc4c[nH]c5ccccc45)C(=O)N[C@H](C(=O)N[C@H](C(=O)N[C@@H](CCCNC(=N)N)C(=O)N[C@@H](CCC(N)=O)C(=O)N(C)[C@@H](CCCNC(=N)N)C(=O)N[C@@H](Cc4ccc(O)cc4)C(N)=O)[C@@H](C)O)C(C)C)c(=O)c3c2)CC1)[C@@H](C)CC [Example 52]	> 9000 nM	0.147 nM	4260 nM	> 9000 nM	0.2 nM
CCCCCCCCCCCCCCCCCCCC(=O)N[C@@H](CCC(=O)O)C(=O)N[C@@H](CCC(=O)O)C(=O)N[C@@H](C(=O)N[C@@H](CCCCNC(=O)CCOCCOCCOCCOCCOCCOCCOCCOCCOCCOCCOCCOCCOCCOCCOCCOCCOCCOCCOCCOCCOCCOCCOCCOC)C(=O)N1CCN(c2ccc3ncn(CC(=O)N[C@@H](CCCNC(=N)N)C(=O)N[C@@H](Cc4c[nH]cn4)C(=O)N[C@@H](Cc4ccc(O)cc4)C(=O)N[C@@H](CC(C)C)C(=O)N[C@@H](CC(N)=O)C(=O)N[C@@H](Cc4c[nH]c5ccccc45)C(=O)N[C@H](C(=O)N[C@H](C(=O)N[C@@H](CCCNC(=N)N)C(=O)N[C@@H](CCC(N)=O)C(=O)N(C)[C@@H](CCCNC(=N)N)C(=O)N[C@@H](Cc4ccc(O)cc4)C(N)=O)[C@@H](C)O)C(C)C)c(=O)c3c2)CC1)[C@@H](C)CC [Example 53]	> 6000 nM	0.66 nM	> 6000 nM	> 6000 nM	0.56 nM
CCCCCCCCCCCCCCCCCCCC(=O)N[C@@H](CCC(=O)O)C(=O)N[C@@H](CCC(=O)O)C(=O)N[C@H](C(=O)N[C@@H](CCCCNC(=O)CCOCCOCCOCCOCCOCCOCCOCCOCCOCCOCCOCCOC)C(=O)N1CCN(c2ccc3ncn(CC(=O)N[C@@H](CCCNC(=N)N)C(=O)N[C@@H](Cc4c[nH]cn4)C(=O)N[C@@H](Cc4ccc(O)cc4)C(=O)N[C@@H](Cc4c[nH]cn4)C(=O)N[C@@H](CC(N)=O)C(=O)N[C@@H](Cc4c[nH]c5ccccc45)C(=O)N[C@H](C(=O)N[C@H](C(=O)N[C@@H](CCCNC(=N)N)C(=O)N[C@@H](CCC(N)=O)C(=O)N[C@@H](CCCNC(=N)N)C(=O)N[C@@H](Cc4ccc(O)cc4)C(N)=O)[C@@H](C)O)C(C)C)c(=O)c3c2)CC1)[C@@H](C)CC [Example 55] (Arachidoyl-EEIK(CH3O(CH2CH2O)11CH2CH2CO)[X1]RHYHNWVTRQRY-NH2)	> 6000 nM	0.027 nM	8.66 nM	> 6000 nM	0.014 nM
CCCCCCCCCCCCCCCCCCCC(=O)N[C@@H](CCC(=O)O)C(=O)N[C@@H](CCC(=O)O)C(=O)N[C@H](C(=O)N[C@@H](CCCCNC(=O)CCOCCOCCOCCOCCOCCOCCOCCOCCOCCOCCOCCOCCOCCOCCOCCOC)C(=O)N1CCN(c2ccc3ncn(CC(=O)N[C@@H](CCCNC(=N)N)C(=O)N[C@@H](Cc4c[nH]cn4)C(=O)N[C@@H](Cc4ccc(O)cc4)C(=O)N[C@@H](Cc4c[nH]cn4)C(=O)N[C@@H](CC(N)=O)C(=O)N[C@@H](Cc4c[nH]c5ccccc45)C(=O)N[C@H](C(=O)N[C@H](C(=O)N[C@@H](CCCNC(=N)N)C(=O)N[C@@H](CCC(N)=O)C(=O)N[C@@H](CCCNC(=N)N)C(=O)N[C@@H](Cc4ccc(O)cc4)C(N)=O)[C@@H](C)O)C(C)C)c(=O)c3c2)CC1)[C@@H](C)CC [Example 56]	> 6000 nM	0.098 nM	8.73 nM	> 6000 nM	0.013 nM
CCCCCCCCCCCCCCCCCCCC(=O)N[C@@H](CCC(=O)O)C(=O)N[C@@H](CCC(=O)O)C(=O)N[C@H](C(=O)N[C@@H](CCCCNC(=O)CCOCCOCCOCCOCCOCCOCCOCCOCCOCCOCCOCCOCCOCCOCCOCCOCCOCCOCCOCCOCCOCCOCCOCCOC)C(=O)N1CCN(c2ccc3ncn(CC(=O)N[C@@H](CCCNC(=N)N)C(=O)N[C@@H](Cc4c[nH]cn4)C(=O)N[C@@H](Cc4ccc(O)cc4)C(=O)N[C@@H](Cc4c[nH]cn4)C(=O)N[C@@H](CC(N)=O)C(=O)N[C@@H](Cc4c[nH]c5ccccc45)C(=O)N[C@H](C(=O)N[C@H](C(=O)N[C@@H](CCCNC(=N)N)C(=O)N[C@@H](CCC(N)=O)C(=O)N[C@@H](CCCNC(=N)N)C(=O)N[C@@H](Cc4ccc(O)cc4)C(N)=O)[C@@H](C)O)C(C)C)c(=O)c3c2)CC1)[C@@H](C)CC [Example 57] (Arachidoyl-EEIK(MeO(CH2CH2O)23CH2CH2CO)[X1]RHYHNWVTRQRY-NH2)	> 6000 nM	0.016 nM	5.67 nM	> 6000 nM	0.011 nM
CCCCCCCCCCCCCCCCCCCC(=O)N[C@@H](CCC(=O)N[C@@H](CCC(=O)N[C@H](C(=O)N[C@@H](CCCCNC(=O)CCOCCOCCOCCOCCOCCOCCOCCOCCOCCOCCOCCOC)C(=O)N1CCN(c2ccc3ncn(CC(=O)N[C@@H](CCCNC(=N)N)C(=O)N[C@@H](Cc4c[nH]cn4)C(=O)N[C@@H](Cc4ccc(O)cc4)C(=O)N[C@@H](CC(C)C)C(=O)N[C@@H](CC(N)=O)C(=O)N[C@@H](Cc4c[nH]c5ccccc45)C(=O)N[C@H](C(=O)N[C@H](C(=O)N[C@@H](CCCNC(=N)N)C(=O)N[C@@H](CCC(N)=O)C(=O)N(C)[C@@H](CCCNC(=N)N)C(=O)N[C@@H](Cc4ccc(O)cc4)C(N)=O)[C@@H](C)O)C(C)C)c(=O)c3c2)CC1)[C@@H](C)CC)C(=O)O)C(=O)O [Example 58]	> 9000 nM	0.114 nM	4180 nM	> 9000 nM	0.21 nM
CCCCCCCCCCCCCCCCCCCC(=O)N[C@@H](CCC(=O)N[C@@H](CCC(=O)N[C@H](C(=O)N[C@@H](CCCCNC(=O)CCOCCOCCOCCOCCOCCOCCOCCOCCOCCOCCOCCOCCOCCOCCOCCOC)C(=O)N1CCN(c2ccc3ncn(CC(=O)N[C@@H](CCCNC(=N)N)C(=O)N[C@@H](Cc4c[nH]cn4)C(=O)N[C@@H](Cc4ccc(O)cc4)C(=O)N[C@@H](CC(C)C)C(=O)N[C@@H](CC(N)=O)C(=O)N[C@@H](Cc4c[nH]c5ccccc45)C(=O)N[C@H](C(=O)N[C@H](C(=O)N[C@@H](CCCNC(=N)N)C(=O)N[C@@H](CCC(N)=O)C(=O)N(C)[C@@H](CCCNC(=N)N)C(=O)N[C@@H](Cc4ccc(O)cc4)C(N)=O)[C@@H](C)O)C(C)C)c(=O)c3c2)CC1)[C@@H](C)CC)C(=O)O)C(=O)O [Example 59]	> 9000 nM	0.285 nM	3880 nM	> 9000 nM	0.29 nM
CCCCCCCCCCCCCCCCCCCC(=O)N[C@@H](CCC(=O)N[C@@H](CCC(=O)N[C@H](C(=O)N[C@@H](CCCCNC(=O)CCOCCOCCOCCOCCOCCOCCOCCOCCOCCOCCOCCOCCOCCOCCOCCOCCOCCOCCOCCOCCOCCOCCOCCOC)C(=O)N1CCN(c2ccc3ncn(CC(=O)N[C@@H](CCCNC(=N)N)C(=O)N[C@@H](Cc4c[nH]cn4)C(=O)N[C@@H](Cc4ccc(O)cc4)C(=O)N[C@@H](CC(C)C)C(=O)N[C@@H](CC(N)=O)C(=O)N[C@@H](Cc4c[nH]c5ccccc45)C(=O)N[C@H](C(=O)N[C@H](C(=O)N[C@@H](CCCNC(=N)N)C(=O)N[C@@H](CCC(N)=O)C(=O)N(C)[C@@H](CCCNC(=N)N)C(=O)N[C@@H](Cc4ccc(O)cc4)C(N)=O)[C@@H](C)O)C(C)C)c(=O)c3c2)CC1)[C@@H](C)CC)C(=O)O)C(=O)O [Example 60]	> 9000 nM	0.18 nM	2600 nM	> 9000 nM	0.29 nM
